Experimental data published in patent US20240124478A1, “SPIROCYCLIC-SUBSTITUTED 6,7-DIHYDRO-PYRANO[2,3-d]PYRIMIDINE INHIBITORS OF KRAS G12C MUTANT” (Merck Sharp & Dohme LLC, priority 2020, published 2024).
Read-outs that look alike come from different tables or passages of the source.

Columns and labels:
NCI-H358 cells = assay: Cellular phospho-ERK assay; assay type: cell-based; conditions: 2 hour incubation, ratio of p-Erk vs total Erk, read-out: IC50 (nM) pERK (Cell)
Protocol: NCI-H358 cells (ATCC® CRL-5807™) were cultured in T150 flask in growth medium (RPMI medium 1640-(ThermoFisher Scientific 61870) containing 10% fetal bovine serum (ThermoFisher Scientific 10091148)). The cells were harvested in growth medium after TrypLE (ThermoFisher scientific 12604021) digestion and were seeded in 384-well collagen coated cell culture plate (Corning 356702) at a density of 15,000 cells/well, and incubated at 37° C., 5% CO2 overnight. The compound dose-response titrations were prepared and appropriate amounts of compounds were dispensed in a 384-well intermediate plate using an Echo 550 liquid handler. RPMI medium 1640-GlutaMAX™-I were added to the intermediate plate and transferred to 384-well cell culture plate, which was incubated at 37° C., 5% CO2 for 2 hours. After removal of medium from the plate, cells were lysed in lysis buffer from SureFire® Ultra™ Multiplex p-Erk and total Erk assay kit (PerkinElmer MPSU-PTERK) containing Halt™ Protease and Phosphotase inhibitor cocktail (ThermoFisher Scientific 78446) at room temperature with constant shaking at 300 rpm for 30 minutes. The cell lysates were then transferred to OptiPlate-384 plate (PerkinElmer 6005620) and the phosphorylation of Erk and total Erk levels were detected by Alpha SureFire Ultra Multiplex p-Erk kit PerkinElmer MPSU-PTERK) following the manufacturer's protocol. Assay plates were read on an EnVision Multimode Plate Reader (PerkinElmer), and the ratio of p-Erk vs total Erk in each well was used as the final readout. Dose response curves were analyzed using a 4-parameter logistic model to calculate IC50 values using spotfire software.

[1] = target: recombinant biotinylated KRAS protein containing G12C/C51S/C80L/C118S mutations (Biotinylated KRAS G12C protein) (Homo sapiens (Human), UniProt P01116, C118S/C51S/C80L/G12C); assay: SOS-catalyzed nucleotide exchange assay (TR-FRET); assay type: biochemical; conditions: apparent potency; preincubation time of 60 minutes prior to addition of SOS
Sequence of recombinant biotinylated KRAS protein containing G12C/C51S/C80L/C118S mutations (Biotinylated KRAS G12C protein) (P01116 other isoform, or with tags, fused parts or gaps, stated change not applied): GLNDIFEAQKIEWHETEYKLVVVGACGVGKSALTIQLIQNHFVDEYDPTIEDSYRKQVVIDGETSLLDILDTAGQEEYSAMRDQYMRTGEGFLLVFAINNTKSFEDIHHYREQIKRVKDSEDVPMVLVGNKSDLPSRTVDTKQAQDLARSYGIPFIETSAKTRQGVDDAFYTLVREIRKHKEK
Protocol: The SOS-catalyzed nucleotide exchange assay utilizes a preformed complex of recombinant biotinylated KRAS protein containing G12C/C51S/C80L/C118S mutations (183 amino acids; biotin on K10; leader sequence which is an AviTag; referred to as SEQ ID NO: 1 or “Biotinylated KRAS G12C protein” hereafter), Bodipy-GDP, and Terbium-streptavidin. Compounds are added to this complex and then after 60 minutes incubation time, the mixture is treated with recombinant SOS protein and unlabeled GTP. Small molecule inhibitors stabilize the Bodipy-GDP complex whereas the untreated protein rapidly exchanges Bodipy-GDP for unlabeled GTP resulting in reduced TR-FRET signal.
Biotinylated KRAS G12C protein (SEQ ID NO: 1) is diluted to 2 μM in an EDTA buffer (20 mM HEPES, 150 mM sodium chloride, 10 mM EDTA, and 0.01% Tween) and incubated at room temperature for one hour. This mixture is then further diluted to 90 nM in an assay buffer (20 mM HEPES, 150 mM sodium chloride, 10 mM magnesium chloride, and 0.005% Tween) containing 15 nM of Terbium-Streptavidin (Invitrogen, catalog #PV3577) and 900 nM of Bodipy-GDP and incubated at room temperature for six hours. This solution is referred to as Biotinylated KRAS G12C mixture.
Each test compound (10 mM stock in DMSO) is diluted in DMSO to make a 10-point, 3-fold dilution series in a 384-well low dead volume microplate (Labcyte, catalog #LP-0200). Once titrations are made, 10 nL of the diluted compounds is acoustically dispensed into a 384-well plate (Corning, catalog #3820) using an Echo 550 (Labcyte).
Each well of the plate receives 3 μL Biotinylated KRAS G12C mixture that had been incubating for six hours and 3 μL of assay buffer using a BioRAPTR (Beckman Coulter) and is incubated at room temperature for 60 minutes. Each well then receives 3 μL of 240 nM recombinant human SOS protein and 9 mM GTP (Sigma, G8877) in assay buffer and is incubated at room temperature for 60 minutes.
The time-resolved fluorescence resonance energy transfer signal of the plate is measured on an Envision (PerkinElmer) plate reader: Excitation filter=340 nm; emission1=495 nm; emission2=520 nm; dichroic mirror=D400/D505; delay time=100 μs. The signal of each well is determined as the ratio of the emission at 520 nm to that at 495 nm. Percent effect of each well is determined after normalization to control wells containing DMSO (no effect) or a saturating concentration of inhibitor (max effect). The apparent effect as a function of compound concentration is fit to a four parameter logistic equation.

Row | SMILES | IC50 (NCI-H358 cells; Homo sapiens, NCI-H358, 2 h) [nM] | IC50 [1] [nM] | IC50 (NCI-H358 cells) [nM]
1 | C=CC(=O)N1CCN(c2nc(OC[C@@H]3CCCN3C)nc3c2CCC2(CCCc4ccnc(O)c42)O3)C[C@@H]1CC#N (mixture of isomers) [Example 8, 2-((2S)-1-acryloyl-4-(1-hydroxy-2′-(((S)-1-methylpyrrolidin-2-yl)methoxy)-5′,6,6′,7-tetrahydro-5H-spiro[isoquinoline-8,7′-pyrano[2,3-d]pyrimidin]-4′-yl)piperazin-2-yl)acetonitrile] | 23400 | 990 | –
2 | C=CC(=O)N1CCN(c2nc(OC[C@@H]3CCCN3C)nc3c2CCC2(CCCc4cccc(C)c42)O3)C[C@@H]1CC#N (single isomer, unassigned) [Example 1b] | – | 54.9 | 2860
3 | C=CC(=O)N1CCN(c2nc(OC[C@@H]3CCCN3C)nc3c2CCC2(CCc4ccccc42)O3)C[C@@H]1CC#N (single isomer, unassigned) [Example 4b] | – | 164 | 2500
4 | C=CC(=O)N1CCN(c2nc(OCC[C@@H]3CCCN3C)nc3c2CCC2(CCCc4ccccc42)O3)C[C@@H]1CC#N (single isomer, unassigned) [Example 5b] | – | 274 | 5980
5 | C=CC(=O)N1CCN(c2nc(OC[C@@H]3CCCN3C)nc3c2CCC2(CCC(C)(C)c4ccccc42)O3)C[C@@H]1CC#N (single isomer, unassigned) [Example 6a] | 3100 | 181 | –
6 | C=CC(=O)N1CCN(c2nc(OC[C@@H]3CCCN3C)nc3c2CCC2(CCC(C)(C)c4ccccc42)O3)C[C@@H]1CC#N (single isomer, unassigned) [Example 6b] | – | 413 | 4370
7 | C=CC(=O)N1CCN(c2nc(OC[C@@H]3CCCN3C)nc3c2CCC2(CCC(F)(F)c4ccccc42)O3)C[C@@H]1CC#N (single isomer, unassigned) [Example 7a] | 1620 | 77.3 | –
8 | C=CC(=O)N1CCN(c2nc(OC[C@@H]3CCCN3C)nc3c2CCC2(CCC(F)(F)c4ccccc42)O3)C[C@@H]1CC#N (single isomer, unassigned) [Example 7b] | – | 119 | 2150

The next compounds have a lower IC50 [1] than those just listed; values first:

Row | IC50 (NCI-H358 cells; Homo sapiens, NCI-H358, 2 h) [nM] | IC50 [1] [nM] | IC50 (NCI-H358 cells) [nM] | SMILES
9 | – | 6.37 | 495 | C=CC(=O)N1CCN(c2nc(OC[C@@H]3CCCN3C)nc3c2CCC2(CCCc4cccc(C)c42)O3)C[C@@H]1CC#N (single isomer, unassigned) [Example 1a]
10 | 154 | 13.7 | – | C=CC(=O)N1CCN(c2nc(OC[C@@H]3CCCN3C)nc3c2CCC2(CCCc4ccccc42)O3)C[C@@H]1CC#N (single isomer, unassigned) [Example 2a]
11 | – | 14.7 | 268 | C=CC(=O)N1CCN(c2nc(OC[C@@H]3CCCN3C)nc3c2CCC2(CCCc4ccccc42)O3)C[C@@H]1CC#N (single isomer, unassigned) [Example 2b]
12 | – | 14.5 | 506 | C=CC(=O)N1CCN(c2nc(OC[C@@H]3CCCN3C)nc3c2CCC2(CCCc4c(F)cccc42)O3)C[C@@H]1CC#N (single isomer, unassigned) [Example 3a]
13 | – | 51 | 1120 | C=CC(=O)N1CCN(c2nc(OC[C@@H]3CCCN3C)nc3c2CCC2(CCCc4c(F)cccc42)O3)C[C@@H]1CC#N (single isomer, unassigned) [Example 3b]
14 | – | 14.9 | 311 | C=CC(=O)N1CCN(c2nc(OC[C@@H]3CCCN3C)nc3c2CCC2(CCc4ccccc42)O3)C[C@@H]1CC#N (single isomer, unassigned) [Example 4a]
15 | – | 18.7 | 1250 | C=CC(=O)N1CCN(c2nc(OCC[C@@H]3CCCN3C)nc3c2CCC2(CCCc4ccccc42)O3)C[C@@H]1CC#N (single isomer, unassigned) [Example 5a]
16 | – | 40.5 | 1940 | C=CC(=O)N1CCN(c2nc(OC[C@@H]3CCCN3C)nc3c2CCC2(CCC(C)c4ccccc42)O3)C[C@@H]1CC#N (single isomer, unassigned) [Example 9a]
17 | – | 34.2 | 1170 | C=CC(=O)N1CCN(c2nc(OC[C@@H]3CCCN3C)nc3c2CCC2(CCC(C)c4ccccc42)O3)C[C@@H]1CC#N (single isomer, unassigned) [Example 9b]
